Measured values published in patent publication US20020102246A1, “Antimicrobial compositions” (Novozymes A/S, priority 2000, published 2002).
Marks after values point to notes of the source that are not given here.

The compounds below were run on Pseudomonas putida (ATCC 12633) (assay: Antimicrobial activity of mediators oxidized by Coprinus cinereus peroxidase (rCiP)). Conditions: 50 μM mediator, rCiP 4 POXU/L, 0.5 mM hydrogen peroxide, 20 minutes at 40° C., pH 7; 6 corresponds to a total kill.
Type: cell-based
Experimental: Antibacterial activity of 4-aminophenol, 4-hydroxy-4′-dimethylamino azobenzene, 4,4′-biphenol, 10-methylphenoxazine and 4,4′-dihydroxydiphenyl ether was evaluated when oxidized by Coprinus cinereus peroxidase (rCiP) (available from Novozymes A/S).
Antimicrobial activity was determined on Pseudomonas putida (ATCC 12633), the cells were grown in Tryptone Soy Broth, TSB (Oxoid CM129) overnight, washed two times in sterile 0.9% saline and suspended in 50 mM HEPES buffer (Sigma H3375) at pH 7 to a cell concentration of approximately 10^6 CFU/ml. The mediators were added to the cell suspension to a final concentration of 50 μM, rCiP was added to the concentration 4 POXU/L and the enzyme reaction was started by addition of hydrogen peroxide to a final concentration of 0.5 mM. Antimicrobial activity was determined after 20 minutes incubation at 40° C., by a 10-fold dilution of the cell suspension into TSB substrate and incubation overnight. Antimicrobial activity was determined as log10 reduction, thus a log10 reduction of 2 corresponds to a kill of 99%.

| SMILES | Log10 reduction |
| --- | --- |
| CN(C)c1ccc(N=Nc2ccc(O)cc2)cc1 [4-Hydroxy-4′-dimethylamino azobenzene] | 6* |
| Oc1ccc(-c2ccc(O)cc2)cc1 [4,4′-Biphenol, 97%, 4,4′-Biphenol] | 1.5 |
| CN1c2ccccc2Oc2ccccc21 [10-Methylphenoxazine] | 3 |
| Oc1ccc(Oc2ccc(O)cc2)cc1 [4,4′-Dihydroxyphenyl ether, 4,4′-Dihydroxydiphenyl ether] | 2.5 |
| Nc1ccc(O)cc1 [4-aminophenol] | 2.5 |
